“Also recorded” adds a separate entry of the source.
What was measured:
[1] = tested on: GH3 cells stably expressing HER2CA; experiment: Realtime PCR of PRL and GH mRNA in GH3 stable transfectants; assay type: cell-based, rat; details: for suppression of PRL expression: Her2CA-GH3 cells
Method: A. […] C. GH and PRL secretion in the culture medium determined by RIA. Hormone secretion levels were normalized for cell numbers, Values are mean±SEM. *p<0.05, **p<0.01. […] GH3 rat lacto-somatotroph tumor cells secreting PRL and GH were purchased from the American Type Culture Collection. HER2CA cells were generated by transfection with […]) purchased from Addgene (Addgene plasmid 16259). Stable colonies were selected in the presence of 500 μg/ml G418 (Invitrogen). A vector control cell line pcDNA3 was simultaneously established by transfecting pcDNA3 that lacked inserted cDNA. […] After synchronization by serum starvation (medium containing 0.2% bovine serum albumin for 24 h), cells with treatment agents was grown in fresh serum-depleted medium (0.2% bovine serum albumin), and samples collected at the indicated times. Total RNA was extracted with Trizol reagent (Invitrogen) according to instructions of the manufacturer. The amount and the integrity of RNA were assessed by measurement of absorbance at 260 and 280 nm. Total RNA was reverse-transcribed into first-strand cDNA using iScript cDNA synthesis kit (Bio-Rad Laboratories, Inc.) according to the manufacturer. Quantitative PCR reactions were carried out in the iQ5 Multicolor Real-time PCR Detection System (Bio-Rad Laboratories, Inc.) as described (8). […] Primer sequences (Invitrogen) were [NT] rRNA forward ([…] rRNA reverse ([NT] (human (3-actin [NT] (human (3-actin […]).

[2] = tested on: GH3 cells stably expressing HER2CA; experiment: Cell proliferation assay (cell counts); assay type: cell-based, rat; details: for cell number: HER2CA GH3 cells, 0.1-10 μM, 24 h treatment
Method: pcDNA3 and HER2CA cells were plated at a density of 2×10^4 per well in 12-well plates or 4×10^3 cells per well in 96-well plates with growth medium. For 12-well plates, cells were counted by hemocytometer at the indicated times. For 96-well plates, premixed WST-1 cell proliferation reagent (Roche Molecular Biochemicals) was added (1:10) at the indicated times and incubated for 4 h at 37° C. in a humidified atmosphere maintained at 5% CO2, and absorbance was then measured at 450 nm. WST-1 is a colorimetric assay for quantification of cell proliferation and cell viability, based on the cleavage of the tetrazolium salt by mitochondrial dehydrogenases in viable cells.

human prolactinoma cells = experiment: Realtime PCR of PRL in primary human prolactinoma cell cultures; assay type: cell-based; details: for suppression of PRL mRNA levels: 24 hr
Method: A, B, D, and E. After trans-sphenoidal surgery of human prolactinomas, tumor cells were cultured. […] PRL levels in culture media were measured using RIA (B). H&E and PRL staining of tumor and confocal immunocytochemistry of EGFR and HER2 (Tumor A) (C), or for Tumor B (F). Magnification of these figures was 100×. […] PRL levels in culture media were measured using RIA (E). Prolactinoma cells (Tumor B) were treated with U0126 (0.1-5 μM) for 24 hr, and Realtime PCR of PRL performed (G).
Total RNA was extracted with Trizol reagent (Invitrogen) according to instructions of the manufacturer. The amount and the integrity of RNA were assessed by measurement of absorbance at 260 and 280 nm. Total RNA was reverse-transcribed into first-strand cDNA using iScript cDNA synthesis kit (Bio-Rad Laboratories, Inc.) according to the manufacturer. Quantitative PCR reactions were carried out in the iQ5 Multicolor Real-time PCR Detection System (Bio-Rad Laboratories, Inc.) as described (8). Certified RT^2 primer assays for rat GH, PRL and human PRL were purchased from SuperArray. Primer sequences (Invitrogen) were 5′-[…]-3′ (18S rRNA forward (F)), 5′-[…]-3′ (18S rRNA reverse (R)), 5′-[…]-3′ (human (3-actin F), 5′-[…]-3′ (human (3-actin R), 5′-[…]-3′ (human GAPDH F), 5′-[…]-3′ (human GAPDH R).
Human prolactinoma tissues were obtained at the time of surgery (Pituitary Center, Cedars-Sinai Medical Center) and transferred in 0.3% BSA containing DMEM according to an IRB-approved protocol. After washing with medium, tumor tissues were chopped with a sterile scalpel into approximately 1-2 mm pieces. Tissues were rinsed and digested with DMEM containing 0.3% BSA, 0.35% collagenase, and 0.15% hyaluronidase at 37° C. for 30 min The mixture was centrifuged at 1,500 rpm for 5 min at 4° C., and the cell pellet resuspended in an appropriate volume of culture medium containing 10% FBS and antibiotics in 48 well plates. After 24 hr incubation with serum depleted starvation medium (DMEM with 0.3% BSA), treatment agents were added with fresh serum-depleted medium (0.3% BSA), and medium collected for RIA. RNA was extracted after 24 hr treatment. Medium was also collected at baseline. To normalize for cell number effect, the PRL value of treated medium was divided by that of pre-treatment starvation medium to obtain a treated value for each well (n=4).

[3] = tested on: EGF-induced HER2 and MAPK autophosphorylation; experiment: Western blotting of EGF-induced ErbB signaling and intracellular PRL in HER2CA GH3 cells; assay type: cell-based, rat
Method: GH3 rat lacto-somatotroph tumor cells secreting PRL and GH were purchased from the American Type Culture Collection. HER2CA cells were generated by transfection with pcDNA3-HER2CA (V654E) purchased from Addgene (Addgene plasmid 16259). Stable colonies were selected in the presence of 500 μg/ml G418 (Invitrogen). A vector control cell line pcDNA3 was simultaneously established by transfecting pcDNA3 that lacked inserted cDNA. After selection and propagation of stable transfectants, cells were cultured in DMEM/F12 medium containing 15% horse serum, 2.5% FBS, penicillin/streptomycin, and 500 μg/m G418. After synchronization by serum starvation (medium containing 0.2% bovine serum albumin for ˜24 h), cells with treatment agents was grown in fresh serum-depleted medium (0.2% bovine serum albumin), and samples collected at the indicated times.
Proteins were separated on 4 to 12% NuPAGE Bis-Tris gels and electro-transferred for 3 h to polyvinylidene difluoride membranes (Invitrogen). Membranes were blocked for 1 h in 5% nonfat dry milk or 5% bovine serum albumin in TBS-T buffer, and incubated overnight with primary antibody. The following primary antibodies were used: anti-pErk1/2, anti-Erk1/2, anti-Akt, anti-pEGFR (Tyr1068), anti-EGFR, anti-pHER3/ErbB3 (Tyr1289), and anti-Cleaved Caspase-3 from Cell Signaling Technology, anti-pNeu (Tyr1248), anti-Neu (C-18), anti-HER3/ErbB3, anti-PRL, and anti-GAPDH from Santa Cruz Biotechnology, and anti-pAkt (Ser473) from Abcam. After washing with TBS-T, membranes were incubated with peroxidase-conjugated secondary antibody for 1 h (5% nonfat dry milk or 5% bovine serum albumin in TBS-T buffer).

[4] = tested on: estrogen induced pituitary lactotroph tumor; experiment: Estrogen induced pituitary lactotroph tumor in Fischer-344 rats; assay type: in vivo, rat; details: F344 rats
Method: 17β-estradiol-filled capsules or empty capsule were inoculated subcutaneously in F344 rats (4-5 weeks of age) for one month. A. Western blotting analysis was performed using collected pituitary or pituitary tumor. Next 17β-estradiol-filled capsules were inoculated subcutaneously in F344 rats (4-5 weeks of age) for 2 months. After capsule excision, oral vehicle or lapatinib was administered for 2 weeks. […] C. Tumor weights were measured after euthanasia. D. Serum PRL and GH levels were measured by RIA.
Next, 4-5 wk ovariectomized female Fishcer-344 rats (Harlan Sprague Dawley, Inc.) were s.c. implanted with an 17β-estradiol-filled […] brand capsule (Dow Corning Corp., Medical Grade Tubing Special; length, 3 cm; od, 0.125 in.; id, 0.062 in.) under isoflurane inhalational anesthesia. Two months thereafter, when serum PRL levels reached 3000 ng/ml, 17β-estradiol-filled capsules were extracted, and animals were treated with lapatinib (100 mg/kg) or vehicle (0.5% methylcellose, 0.5% tween80/PBS; 100 μl) via oral gavage twice a day for 2 weeks. 500 μl blood was collected for hormone assessment by retro-orbital bleeding under isoflurane inhalational anesthesia. On the last treatment day (day 14), rats were euthanized within 3 h of drug administration. Cardiac blood was collected and pituitary tumors excised and weighed. Fragments of each tumor were fixed in formalin and embedded in paraffin, preserved in RNA later solution, or frozen in liquid nitrogen.
Next, the inventors tested Fischer-344 rats treated with 17β-estradiol as a model for pituitary prolactinomas (24). […] The inventors then extracted the capsule, and initiated oral lapatinib or vehicle treatment for a subsequent 2 weeks.

[5] = Tumor A, lapatinib 0.1-10 μM or gefitinib 10 μM
[6] = 100 mg/kg oral gavage twice a day for 2 weeks

Row | Compound | suppression of PRL expression [1] [%] | cell number [2] | suppression of PRL mRNA levels (human prolactinoma cells; [5]) | suppression of PRL mRNA levels (human prolactinoma cells; Tumor B, 0.01-10 μM) [%] | intracellular PRL levels ([3]; Western blotting) | attenuation of Her1/EGFR and Her2/Neu signaling (HER2 and MAPK autophosphorylation) ([3]; pretreated 0.1-10 μM 45 min, EGF 5 nM 10 min) | PRL mRNA levels ([1]; HER2CA GH3 cells, 1 μM) | suppression of cell number, HER2 overexpressing vs pcDNA3 transfectants ([2]; pcDNA3 and HER2CA transfectants compared) | serum GH levels [4, 6] | suppression of serum PRL levels [4, 6] [%] | suppression of tumor weight ([4]; 100 mg/kg oral gavage twice a day for 2 weeks after capsule extraction) [%] | pituitary tumor growth induced by estrogen ([4]; oral treatment for 2 weeks) | suppression of human PRL mRNA expression (human prolactinoma cells; human primary prolactinoma tumor cell cultures, tumor not named) [%]
1 | COc1cc2ncnc(Nc3ccc(F)c(Cl)c3)c2cc1OCCCN1CCOCC1 [gefitinib] | ~50 | decreased in a dose-dependent manner | no effect | ~45 |  |  |  |  |  |  |  |  | 
2 | CS(=O)(=O)CCNCc1ccc(-c2ccc3ncnc(Nc4ccc(OCc5cccc(F)c5)c(Cl)c4)c3c2)o1 [lapatinib, Lapatinib] | ~70 | decreased in a dose-dependent manner | ~90% | ~45 | decreased | attenuated EGF-induced HER2 and MAPK autophosphorylation more markedly than gefitinib; also recorded: blocked | more marked suppression | enhanced in HER2 overexpressing transfectants | not altered | ~35 | ~35 | attenuated | ~80

— US20120308567A1, “USE OF TYROSINE KINASE INHIBITORS FOR TREATMENT OF PROLACTINOMA” (CEDARS-SINAI MEDICAL CENTER, priority 2010, published 2012)
